Laboratory results from patent US20230382925A1, “MODULATORS OF CYSTIC FIBROSIS TRANSMEMBRANE CONDUCTANCE REGULATOR” (VERTEX PHARMACEUTICALS INCORPORATED, priority 2020, published 2023).
Where two headings read alike, the source gives them in different places.

Biological target: CFTR (Homo sapiens, UniProt P13569)
Assay: Membrane Potential Dye, Enteroid Assay B
Assay type: cell-based
Procedure: Base medium (ADF+++) consisted of Advanced […], 2 mM Glutamax, 10 mM HEPES, 1 μg/mL penicillin/streptomycin.
Intestinal enteroid maintenance medium (IEMMN) consisted of ADF+++, 1× B27 supplement, 1× N2 supplement, 1.25 mM N-acetyl cysteine, 10 mM Nicotinamide, 50 ng/mL hEGF, 10 nM Gastrin, 1 μg/mL hR-spondin-1, 100 ng/mL hNoggin, TGF-b type 1 inhibitor A-83-01, 100 μg/mL Primocin, 10 μM P38 MAPK inhibitor SB202190.
Bath 1 Buffer consisted of 1 mM MgCl2, 160 mM NaCl, 4.5 mM KCl, 10 mM HEPES, 10 mM Glucose, 2 mM CaCl2).
Chloride Free Buffer consisted of 1 mM Magnesium Gluconate, 2 mM Calcium Gluconate, 4.5 mM Potassium Gluconate, 160 mM Sodium Gluconate, 10 mM HEPES, 10 mM Glucose.
Bath 1 Dye Solution consisted of Bath 1 Buffer, 0.04% Pluronic F127, 20 μM Methyl Oxonol, 30 μM CaCCinh-A01, 30 μM Chicago Sky Blue.
Chloride Free Dye Solution consisted of Chloride Free Buffer, 0.04% Pluronic F127, 20 μM Methyl Oxonol, 30 μM CaCCinh-A01, 30 μM Chicago Sky Blue.
Chloride Free Dye Stimulation Solution consisted of Chloride Free Dye Solution, 10 μM forskolin, 100 μM IBMX, and 300 nM Compound III.
Human intestinal epithelial enteroid cells were obtained from the Hubrecht Institute for Developmental Biology and Stem Cell Research, Utrecht, The Netherlands and expanded in T-Flasks as previously described (Dekkers J F, Wiegerinck C L, de Jonge H R, Bronsveld I, Janssens H M, de Winter-de Groot K M, Brandsma A M, de Jong N W M, Bijvelds M J C, Scholte B J, Nieuwenhuis E E S, van den Brink S, Clevers H, van der Ent C K, Middendorp S and M Beekman J M. A functional CFTR assay using primary cystic fibrosis intestinal organoids. Nat Med. 2013 July; 19(7):939-45.).
3. Enteroid Cell Harvesting and Seeding
Cells were recovered in cell recovery solution, collected by centrifugation at 650 rpm for 5 min at 4° C., resuspended in TrypLE and incubated for 5 min at 37° C. Cells were then collected by centrifugation at 650 rpm for 5 min at 4° C. and resuspended in IEMM containing 10 μM ROCK inhibitor (RI). The cell suspension was passed through a 40 μm cell strainer and resuspended at 1×10^6 cells/mL in IEMM containing 10 μM RI. Cells were seeded at 5000 cells/well into multi-well plates and incubated for overnight at 37° C., 95% humidity and 5% CO2 prior to assay.
5. Membrane Potential Dye, Enteroid Assay B
Enteroid cells were incubated with test compound in IEMM for 18-24 hours at 37° C., 95% humidity and 5% CO2. […] Briefly, cells were washed 5 times in Bath 1 Buffer. Bath 1 Dye Solution was added and the cells were incubated for 25 min at room temperature. Following dye incubation, cells were washed 3 times in Chloride Free Dye Solution. Chloride transport was initiated by addition of Chloride Free Dye Stimulation Solution and the fluorescence signal was read for 15 min. […] Chloride transport was then expressed as a percentage of the chloride transport following treatment with 1 μM (14S)-8-[3-(2-{Dispiro[2.0.2.1]heptan-7-yl}ethoxy)-1H-pyrazol-1-yl]-12,12-dimethyl-2λ^6-thia-3,9,11,18,23-pentaazatetracyclo[17.3.1.111,14.05,10]tetracosa-1(22),5,7,9,19(23),20-hexaene-2,2,4-trione, 3 μM (R)-1-(2,2-difluorobenzo[d][1,3]dioxol-5-yl)-N-(1-(2,3-dihydroxypropyl)-6-fluoro-2-(1-hydroxy-2-methylpropan-2-yl)-1H-indol-5-yl)cyclopropanecarboxamide and 300 nM acute N-[2,4-bis(1,1-dimethylethyl)-5-hydroxyphenyl]-1,4-dihydro-4-oxoquinoline-3-carboxamide triple combination control (% Activity).

[1] = Table 10, read-out: Ent. B EC50

Sequence of CFTR (P13569 with tags, fused parts or gaps DEL508-508): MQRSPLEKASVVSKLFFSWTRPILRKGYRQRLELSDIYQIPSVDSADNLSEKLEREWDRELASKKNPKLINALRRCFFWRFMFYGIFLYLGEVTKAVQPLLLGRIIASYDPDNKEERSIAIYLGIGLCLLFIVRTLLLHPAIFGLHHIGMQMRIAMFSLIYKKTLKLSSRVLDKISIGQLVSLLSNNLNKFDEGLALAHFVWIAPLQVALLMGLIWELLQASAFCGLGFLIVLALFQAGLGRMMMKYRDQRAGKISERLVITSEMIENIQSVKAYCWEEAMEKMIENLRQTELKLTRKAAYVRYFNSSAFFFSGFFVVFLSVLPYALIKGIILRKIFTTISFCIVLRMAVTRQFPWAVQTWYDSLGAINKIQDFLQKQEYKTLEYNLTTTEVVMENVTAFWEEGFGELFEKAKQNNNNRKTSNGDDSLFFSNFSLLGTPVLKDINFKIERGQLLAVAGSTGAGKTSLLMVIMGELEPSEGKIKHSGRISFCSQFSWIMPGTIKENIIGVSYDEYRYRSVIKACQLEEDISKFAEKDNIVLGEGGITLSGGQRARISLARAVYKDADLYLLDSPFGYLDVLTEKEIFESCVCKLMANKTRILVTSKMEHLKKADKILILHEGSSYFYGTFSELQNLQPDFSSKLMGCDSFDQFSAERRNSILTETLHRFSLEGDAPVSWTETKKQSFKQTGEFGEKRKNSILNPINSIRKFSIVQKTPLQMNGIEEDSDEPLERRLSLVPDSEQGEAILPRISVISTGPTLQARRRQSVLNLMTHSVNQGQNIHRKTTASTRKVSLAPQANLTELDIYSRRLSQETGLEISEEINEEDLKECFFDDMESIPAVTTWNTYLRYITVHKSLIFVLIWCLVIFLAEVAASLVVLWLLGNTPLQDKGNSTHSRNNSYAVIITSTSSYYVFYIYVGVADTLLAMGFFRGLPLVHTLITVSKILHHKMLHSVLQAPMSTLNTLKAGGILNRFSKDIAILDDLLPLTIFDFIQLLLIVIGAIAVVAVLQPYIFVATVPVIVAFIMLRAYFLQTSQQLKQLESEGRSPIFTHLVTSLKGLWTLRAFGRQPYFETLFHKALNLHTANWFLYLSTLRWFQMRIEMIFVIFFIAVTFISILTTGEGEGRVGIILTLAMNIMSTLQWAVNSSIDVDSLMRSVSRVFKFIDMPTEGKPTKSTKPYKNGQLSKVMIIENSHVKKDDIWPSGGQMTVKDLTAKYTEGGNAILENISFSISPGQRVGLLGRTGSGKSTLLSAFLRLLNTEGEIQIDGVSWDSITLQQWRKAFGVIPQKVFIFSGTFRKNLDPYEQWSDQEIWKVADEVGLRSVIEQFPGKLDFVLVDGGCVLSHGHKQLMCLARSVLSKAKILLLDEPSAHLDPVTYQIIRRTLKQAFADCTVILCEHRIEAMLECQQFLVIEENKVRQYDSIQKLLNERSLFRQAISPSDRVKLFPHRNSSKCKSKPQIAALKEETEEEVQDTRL

Row | SMILES | Ent. B Max Activity (%) (Table 10) | EC50 [1] | other results
1 | COC(=O)NC1(C)CC2(CC(N3C(=O)c4cccc(c4)S(=O)(=O)Nc4nc(cc(-c5c(C)cccc5C)n4)OC[C@H]3CC(C)(C)C)C2)C1 (single isomer, unassigned) [Compound 96] | ++ (++ is 30-60%) | < 1 µM | 
2 | Cc1cccc(C)c1-c1cc2nc(n1)NS(=O)(=O)c1cccc(c1)C(=O)N([C@H]1C[C@@H](CN(C)C)C1)[C@H](CC(C)C)CO2 (single isomer, unassigned) [Compound 105] |  |  | Ent. B Max Activity (%) (Table 9): +++ (+++ is >60%); EC50 (Table 9, read-out: Ent. B EC50): < 1 µM
3 | Cc1cccc(C)c1-c1cc2nc(n1)NS(=O)(=O)c1cccc(c1)C(=O)N([C@H]1C[C@@H](CN(C)C)C1)[C@H](CC(C)C)CO2 (single isomer, unassigned) [Compound 106] |  |  | Ent. B Max Activity (%) (Table 9): +++ (+++ is >60%); EC50 (Table 9, read-out: Ent. B EC50): < 1 µM
4 | Cc1cccc(C)c1-c1cc2nc(n1)NS(=O)(=O)c1cccc(c1)C(=O)N([C@H]1C[C@@H](CNC(=O)OC(C)C)C1)[C@H](CC(C)C)CO2 (single isomer, unassigned) [Compound 107] |  |  | Ent. B Max Activity (%) (Table 9): +++ (+++ is >60%); EC50 (Table 9, read-out: Ent. B EC50): < 1 µM
5 | Cc1cccc(C)c1-c1cc2nc(n1)NS(=O)(=O)c1cccc(c1)C(=O)N([C@H]1C[C@@H](CNC(=O)OC(C)C)C1)[C@H](CC(C)C)CO2 (single isomer, unassigned) [Compound 108] |  |  | Ent. B Max Activity (%) (Table 9): +++ (+++ is >60%); EC50 (Table 9, read-out: Ent. B EC50): < 1 µM
6 | Cc1cccc(C)c1-c1cc2nc(n1)NS(=O)(=O)c1cccc(c1)C(=O)N(C1CC3(CC(C(=O)N(C)C)C3)C1)[C@H](CC(C)(C)C)CO2 (single isomer, unassigned) [Compound 114] | +++ (+++ is >60%) | < 1 µM | 
7 | [H][C@]1(N2C(=O)c3cccc(c3)S(=O)(=O)Nc3nc(cc(-c4c(C)cccc4C)n3)OC[C@H]2CC(C)(C)C)C[C@@]2(C[C@H](C(=O)N(C)C)C2)C1 (single isomer, unassigned) [Compound 115] | +++ (+++ is >60%) | < 1 µM | 
8 | Cc1cccc(C)c1-c1cc2nc(n1)NS(=O)(=O)c1cccc(c1)C(=O)N(C1CC3(C1)CC(C(C)(C)O)C3)[C@H](CC(C)(C)C)CO2 (single isomer, unassigned) [Compound 116] | +++ (+++ is >60%) | < 1 µM | 
9 | Cc1cccc(C)c1-c1cc2nc(n1)NS(=O)(=O)c1cccc(c1)C(=O)N(C1CC3(C1)CC(C(C)(C)O)C3)[C@H](CC(C)(C)C)CO2 (single isomer, unassigned) [Compound 117] | +++ (+++ is >60%) | < 1 µM | 
10 | Cc1cccc(C)c1-c1cc2nc(n1)NS(=O)(=O)c1cccc(c1)C(=O)N(C1CC3(CC(N)C3)C1)[C@H](CC(C)(C)C)CO2 (single isomer, unassigned) [Compound 118] |  |  | Ent. B Max Activity (%): +++ (+++ is >60%); EC50 (read-out: Ent. B EC50): < 1 µM
11 | Cc1cccc(C)c1-c1cc2nc(n1)NS(=O)(=O)c1cccc(c1)C(=O)N(C1CC3(C1)CC(C)(O)C3)[C@H](CC(C)(C)C)CO2 (single isomer, unassigned) [Compound 119] | +++ (+++ is >60%) | < 1 µM | 
12 | Cc1cccc(C)c1-c1cc2nc(n1)NS(=O)(=O)c1cccc(c1)C(=O)N(C1CC3(C1)CC(C)(O)C3)[C@H](CC(C)(C)C)CO2 (single isomer, unassigned) [Compound 120] | ++ (++ is 30-60%) | < 1 µM | 
13 | Cc1cccc(C)c1-c1cc2nc(n1)NS(=O)(=O)c1cccc(c1)C(=O)N(C1CC3(CC(O)C3)C1)[C@H](CC(C)(C)C)CO2 (single isomer, unassigned) [Compound 121] | +++ (+++ is >60%) | < 1 µM | 
14 | Cc1cccc(C)c1-c1cc2nc(n1)NS(=O)(=O)c1cccc(c1)C(=O)N(C1CC3(CC(O)C3)C1)[C@H](CC(C)(C)C)CO2 (single isomer, unassigned) [Compound 122] | +++ (+++ is >60%) | < 1 µM | 
15 | [H][C@]1(N2C(=O)c3cccc(c3)S(=O)(=O)Nc3nc(cc(-c4c(C)cccc4C)n3)OC[C@H]2CC(C)C)C[C@@]2(C[C@H](NC(=O)OC(C)C)C2)C1 (single isomer, unassigned) [Compound 123] | +++ (+++ is >60%) | < 1 µM | 
16 | [H][C@]1(N2C(=O)c3cccc(c3)S(=O)(=O)Nc3nc(cc(-c4c(C)cccc4C)n3)OC[C@H]2CC(C)C)C[C@@]2(C[C@H](NC(=O)OC(C)C)C2)C1 (single isomer, unassigned) [Compound 124] | +++ (+++ is >60%) | < 1 µM | 
17 | Cc1cccc(C)c1-c1cc2nc(n1)NS(=O)(=O)c1cccc(c1)C(=O)N([C@H]1C[C@@H](OC(C)C)C1)[C@H](CC1(C(F)(F)F)CC1)CO2 (single isomer, unassigned) [Compound 130] |  |  | Ent. B Max Activity (%) (Table 9): +++ (+++ is >60%); EC50 (Table 9, read-out: Ent. B EC50): < 1 µM
18 | Cc1cccc(C)c1-c1cc2nc(n1)NS(=O)(=O)c1cccc(c1)C(=O)N([C@H]1C[C@@H](OC(C)C)C1)[C@H](CC1(C(F)(F)F)CC1)CO2 (single isomer, unassigned) [Compound 131] |  |  | Ent. B Max Activity (%) (Table 9): +++ (+++ is >60%); EC50 (Table 9, read-out: Ent. B EC50): < 1 µM
19 | [H][C@]1(N2C(=O)c3cccc(c3)S(=O)(=O)Nc3nc(cc(-c4c(C)cccc4C)n3)OC[C@H]2CC2(C(F)(F)F)CC2)C[C@]2(C[C@@H](CO)C2)C1 (single isomer, unassigned) [Compound 134] |  |  | Ent. B Max Activity (%): +++ (+++ is >60%); EC50 (read-out: Ent. B EC50): < 1 µM
20 | [H][C@]1(N2C(=O)c3cccc(c3)S(=O)(=O)Nc3nc(cc(-c4c(C)cccc4C)n3)OC[C@H]2CC2(C(F)(F)F)CC2)C[C@]2(C[C@@H](CO)C2)C1 (single isomer, unassigned) [Compound 135] |  |  | Ent. B Max Activity (%): +++ (+++ is >60%); EC50 (read-out: Ent. B EC50): < 1 µM
21 | Cc1cccc(C)c1-c1cc2nc(n1)NS(=O)(=O)c1cccc(c1)C(=O)N([C@H]1C[C@@H](C(C)(C)O)C1)[C@H](CC(C)(C)C)CO2 (single isomer, unassigned) [Compound 141] | +++ (+++ is >60%) | < 1 µM | 
22 | Cc1cccc(C)c1-c1cc2nc(n1)NS(=O)(=O)c1cccc(c1)C(=O)N([C@H]1C[C@@H](C(C)(C)O)C1)[C@H](CC(C)(C)C)CO2 (single isomer, unassigned) [Compound 142] | +++ (+++ is >60%) | < 1 µM | 
23 | COC(=O)N1C[C@H]2C[C@@H](C1)C2N1C(=O)c2cccc(c2)S(=O)(=O)Nc2nc(cc(-c3c(C)cccc3C)n2)OC[C@H]1CC(C)(C)C (single isomer, unassigned) [Compound 143] | ++ (++ is 30-60%) |  | EC50 (read-out: Ent. B EC50, Table 10): < 1 µM
24 | Cc1cccc(C)c1-c1cc2nc(n1)NS(=O)(=O)c1cccc(c1)C(=O)N([C@@H]1CC[C@@H]1C1CC1)[C@H](CC(C)(C)C)CO2 (single isomer, unassigned) [Compound 147] | ++ (++ is 30-60%) | < 1 µM | 
25 | Cc1cccc(C)c1-c1cc2nc(n1)NS(=O)(=O)c1cccc(c1)C(=O)N([C@@H]1CC[C@@H]1C1CC1)[C@H](CC(C)(C)C)CO2 (single isomer, unassigned) [Compound 148] | +++ (+++ is >60%) | < 1 µM | 
26 | CO[C@H]1C[C@@H](N2C(=O)c3cccc(c3)S(=O)(=O)Nc3nc(cc(-c4c(C)cccc4C)n3)OC[C@H]2CC(C)(C)C)C1 (single isomer, unassigned) [Compound 150] |  |  | Ent. B Max Activity (%): +++ (+++ is >60%); EC50 (read-out: Ent. B EC50): < 1 µM
